Results taken from article PMC7317746 (Environmental and Molecular Mutagenesis, 2020).
Like-named read-outs stand apart in the source and are kept apart here. Marks after values point to notes of the source that are not given here.

Key:
male Sprague Dawley rats [1] = assay: Pig‐a assay; assay type: in vivo, rat
male Sprague Dawley rats [2] = assay: Micronucleus assay in peripheral blood erythrocytes; assay type: in vivo, rat
peripheral blood cells = assay: Comet assay, peripheral blood cells; assay type: in vivo, rat
liver cells = assay: Comet assay, liver cells; assay type: in vivo, rat
male Sprague Dawley rats [3] = details: 1-Month Study, 1,000 mg/kg/day
[4] = system: bacteria, in vitro mammalian cell and in vivo transgenic rat assays; details: ref IARC, 1990, Bergman et al., 1996; cited from earlier work
[5] = 3-Day Study, 1,000 mg/kg/day Days 1-3, Day 30
[6] = 3-Day Study, 1,000 mg/kg/day Days 1-3, Day 45
[7] = 3-Day Study, 1,000 mg/kg/day, Day -4 (pre-treatment)
[8] = 3-Day Study, 2,000 mg/kg/day Days 1-3, Day 15
[9] = 3-Day Study, 2,000 mg/kg/day Days 1-3, Day 30
[10] = 3-Day Study, 2,000 mg/kg/day Days 1-3, Day 45
[11] = 3-Day Study, 2,000 mg/kg/day, Day -4 (pre-treatment)
[12] = 1-Month Study, 250 mg/kg/day, Day 4
[13] = 1-Month Study, 250 mg/kg/day, Day 29
[14] = 1-Month Study, 500 mg/kg/day, Day 4
[15] = 1-Month Study, 500 mg/kg/day, Day 29
[16] = 1-Month Study, 1,000 mg/kg/day, Day 29
[17] = 3-Day Study, 500 mg/kg/day, Day 4
[18] = ≤1,000 mg/kg/day, up to 29 days
[19] = 3-Day Study, 500 mg/kg/day, Day 3
[20] = 3-Day Study, 1,000 mg/kg/day, Day 3
[21] = 3-Day Study, 2,000 mg/kg/day, Day 3

Compound: CC(=O)Nc1ccc(O)cc1 [acetaminophen, Acetaminophen]
- Number of CD59‐Neg RBCs per 10^6 RBCs mean ± SD (male Sprague Dawley rats [1]; [5]): 0.8 ± 0.4 per 10^6 RBCs
- Number of CD59‐Neg RETs per 10^6 RETs mean ± SD (male Sprague Dawley rats [1]; [5]): 1.5 ± 1.8 per 10^6 RETs
- %RETs mean ± SD (male Sprague Dawley rats [1]; [6]): 2.9 ± 0.3%
- Number of CD59‐Neg RBCs per 10^6 RBCs mean ± SD (male Sprague Dawley rats [1]; [6]): 1.1 ± 1.1 per 10^6 RBCs
- Number of CD59‐Neg RETs per 10^6 RETs mean ± SD (male Sprague Dawley rats [1]; [6]): 2.0 ± 2.1 per 10^6 RETs
- %RETs mean ± SD (male Sprague Dawley rats [1]; [7]): 3.6 ± 0.8%
- Number of CD59‐Neg RBCs per 10^6 RBCs mean ± SD (male Sprague Dawley rats [1]; [7]): 0.4 ± 0.2 per 10^6 RBCs
- Number of CD59‐Neg RETs per 10^6 RETs mean ± SD (male Sprague Dawley rats [1]; [7]): 1.2 ± 0.5 per 10^6 RETs
- %RETs mean ± SD (male Sprague Dawley rats [1]; [8]): 5.7 ± 0.4 %
- Number of CD59‐Neg RBCs per 10^6 RBCs mean ± SD (male Sprague Dawley rats [1]; [8]): 2.9 ± 6.1 per 10^6 RBCs
- Number of CD59‐Neg RETs per 10^6 RETs mean ± SD (male Sprague Dawley rats [1]; [8]): 11.3 ± 26.2 per 10^6 RETs
- %RETs mean ± SD (male Sprague Dawley rats [1]; [9]): 3.3 ± 0.6%
- Number of CD59‐Neg RBCs per 10^6 RBCs mean ± SD (male Sprague Dawley rats [1]; [9]): 32.4 ± 78.4 per 10^6 RBCs
- Number of CD59‐Neg RETs per 10^6 RETs mean ± SD (male Sprague Dawley rats [1]; [9]): 40.3 ± 98.3 per 10^6 RETs
- %RETs mean ± SD (male Sprague Dawley rats [1]; [10]): 2.4 ± 0.2 %
- Number of CD59‐Neg RBCs per 10^6 RBCs mean ± SD (male Sprague Dawley rats [1]; [10]): 38.5 ± 92.8 per 10^6 RBCs
- Number of CD59‐Neg RETs per 10^6 RETs mean ± SD (male Sprague Dawley rats [1]; [10]): 15.1 ± 36.2 per 10^6 RETs
- %RETs mean ± SD (male Sprague Dawley rats [1]; [11]): 3.2 ± 0.8%
- Number of CD59‐Neg RBCs per 10^6 RBCs mean ± SD (male Sprague Dawley rats [1]; [11]): 0.3 ± 0.1 per 10^6 RBCs
- Number of CD59‐Neg RETs per 10^6 RETs mean ± SD (male Sprague Dawley rats [1]; [11]): 1.2 ± 0.6 per 10^6 RETs
- Mutagenicity in the rat Pig‐a model (conclusion) (male Sprague Dawley rats [1]; 250-2,000 mg/kg/day, 3-Day, 2-Week and 1-Month Studies): not mutagenic
- %MN‐RETs mean ± SD (male Sprague Dawley rats [2]; [12]): 0.14 ± 0.03%
- %RETs mean ± SD (male Sprague Dawley rats [2]; [12]): 2.89 ± 1.89%
- %MN‐RETs mean ± SD (male Sprague Dawley rats [2]; [13]): 0.15 ± 0.05%
- %RETs mean ± SD (male Sprague Dawley rats [2]; [13]): 1.32 ± 0.25%
- %MN‐RETs mean ± SD (male Sprague Dawley rats [2]; [14]): 0.18 ± 0.07%
- %RETs mean ± SD (male Sprague Dawley rats [2]; [14]): 1.80 ± 1.98%
- %MN‐RETs mean ± SD (male Sprague Dawley rats [2]; [15]): 0.22 ± 0.04^ %
- %RETs mean ± SD (male Sprague Dawley rats [2]; [15]): 1.03 ± 0.28%
- %RETs mean ± SD (male Sprague Dawley rats [2]; 1-Month Study, 1,000 mg/kg/day, Day 4): 0.03 ± 0.02 %
- %MN‐RETs mean ± SD (male Sprague Dawley rats [2]; [16]): 0.59 ± 0.23^ %
- %RETs mean ± SD (male Sprague Dawley rats [2]; [16]): 1.48 ± 1.05%
- %MN‐RETs mean ± SD (male Sprague Dawley rats [2]; [17]): 0.12 ± 0.05%
- %RETs mean ± SD (male Sprague Dawley rats [2]; [17]): 0.89 ± 0.68%
- %RETs mean ± SD (male Sprague Dawley rats [2]; 3-Day Study, 1,000 mg/kg/day, Day 4): 0.08 ± 0.08 %
- %MN‐RETs mean ± SD (male Sprague Dawley rats [2]; 3-Day Study, 1,000 mg/kg/day, Day 4, only 1 animal analyzed): 0.21 ^a %
- %RETs mean ± SD (male Sprague Dawley rats [2]; 3-Day Study, 2,000 mg/kg/day, Day 4): 0.03 ± 0.04 %
- Micronucleus endpoint in peripheral blood RETs (conclusion) (male Sprague Dawley rats [2]; [18]): negative
- Blood % tail intensity mean ± SD (peripheral blood cells; [13]): 0.13 ± 0.08%
- Blood % tail intensity mean ± SD (peripheral blood cells; [15]): 0.19 ± 0.10%
- Blood % tail intensity mean ± SD (peripheral blood cells; [16]): 0.24 ± 0.15%
- Blood % tail intensity mean ± SD (peripheral blood cells; [19]): 0.31 ± 0.11%
- Blood % tail intensity mean ± SD (peripheral blood cells; [20]): 0.41 ± 0.12 %
- Blood % tail intensity mean ± SD (peripheral blood cells; [21]): 0.34 ± 0.07%
- Increase in % tail intensity in peripheral blood cells versus vehicle (peripheral blood cells; 3-Day Study, at 1,000 mg/kg/day, not considered biologically relevant): up to 1.6 fold
- Liver % tail intensity mean ± SD (liver cells; [13]): 0.20 ± 0.11%
- Liver % tail intensity mean ± SD (liver cells; [15]): 0.18 ± 0.06%
- Liver % tail intensity mean ± SD (liver cells; [16]): 0.34 ± 0.25 %
- Liver % tail intensity mean ± SD (liver cells; [19]): 0.22 ± 0.09%
- Liver % tail intensity mean ± SD (liver cells; [20]): 0.27 ± 0.10%
- Liver % tail intensity mean ± SD (liver cells; [21]): 0.28 ± 0.07 %
- Comet endpoint in peripheral blood cells and liver cells (conclusion) (liver cells; [18]): negative
- Rats with minimal remnants of treatment‐related liver changes (male Sprague Dawley rats [3]; after 1-month recovery period): 2/6
- Rats with minimal to slight liver changes in the centrilobular region (male Sprague Dawley rats [3]; after 1 month): 9/16
- Rats with minimal to slight liver changes in the centrilobular region (male Sprague Dawley rats [3]; after 1 week): 5/5
- Mutagenicity [4]: nonmutagenic
